target: PAR4 (Homo sapiens (Human), UniProt Q96RI0); test: FLIPR assay in PAR4-expressing HEK293 cells (PAR4 antagonist activity); type: cell-based; settings: inhibition of H-Ala-Phe(4-F)-Pro-Gly-Trp-Leu-Val-Lys-Asn-Gly-NH2-induced intracellular calcium mobilization
Description: The FLIPR assay is an exemplary in vitro assay for measuring the activity of the PAR4 antagonists of the present invention. In this assay, intracellular calcium mobilization is induced in PAR4 expressing cells by a PAR4 agonist and calcium mobilization is monitored. See, e.g., Example A.
HEK293 cells stably expressing PAR4 were generated by a standard method of transfection of human PAR4 (F2R23) cDNA expression vector and selected based on PAR4 protein expression or mRNA expression. […] These cells also express endogenous PAR1 and can elicit calcium signal upon stimulation with PAR1 agonist peptide. Therefore, the same cells were also used to determine selectivity against PAR1 and agonist activity for both receptors. Cells from HEK293 PAR4 Clone 1.2A (BMS Arctic ID 383940) were propagated and used for calcium mobilization studies.
FLIPR-based calcium mobilization assay in HEK293 cells was used to measure PAR4 antagonism, agonism, and selectivity against PAR1. The activity of the PAR4 antagonists of the present invention were tested in PAR4 expressing cells by monitoring H-Ala-Phe(4-F)-[…]NH2-induced intracellular calcium mobilization. Counter screens for agonist activity and PAR1 antagonist activity were also performed. Briefly, PAR1/PAR4-expressing HEK293 cells were grown in DMEM (Life Technology, Grand Island, N.Y.) containing 10% heat-inactivated FBS, 1% Penicillin-Streptomycin, 10 μg/mL blasticidin, and 100 μg/mL Zeocin at 37° C. with 5% CO2. Cells were plated overnight prior to the experiment in a black 384-well Purecoat Amine clear bottom plate (Becton Dickinson Biosciences, San Jose, Calif.) at 10,000 cells/well in 30 μL growth medium and incubated in a humidified chamber at 37° C. with 5% CO2 overnight. Prior to compound addition, the cell medium was replaced with […] of 1× calcium and magnesium-containing Hank's Balanced Saline Solution (HBSS) (with 20 mM HEPES) and 1:1000 diluted fluorescent calcium indicator (Codex Biosolutions, Gaithersburg, Md.). After a 30 minute incubation period at 37° C. and a further 30 minute incubation and equilibration period at room temperature, 20 μL test compound (diluted in 1× HBSS buffer) was added at various concentrations at 0.17% dimethyl sulfoxide (DMSO) final concentration. Changes in fluorescence intensity were measured using a Functional Drug Screening System (FDSS, Hamamatsu, Japan) to determine agonist activities. The cells were then incubated for 30 minutes at room temperature followed by addition of 20 μL of agonist peptide for antagonist activity measurement. […] Compound potency was derived from 11-point concentration-response curves.
The following Table sets out results obtained employing various compounds of the invention tested in the FLIPR assay. As indicated above, the FLIPR assay, an in vitro assay, measures the PAR4 antagonist activity of compounds tested as described in Example A.

PAR4, sequence (Q96RI0 18-385): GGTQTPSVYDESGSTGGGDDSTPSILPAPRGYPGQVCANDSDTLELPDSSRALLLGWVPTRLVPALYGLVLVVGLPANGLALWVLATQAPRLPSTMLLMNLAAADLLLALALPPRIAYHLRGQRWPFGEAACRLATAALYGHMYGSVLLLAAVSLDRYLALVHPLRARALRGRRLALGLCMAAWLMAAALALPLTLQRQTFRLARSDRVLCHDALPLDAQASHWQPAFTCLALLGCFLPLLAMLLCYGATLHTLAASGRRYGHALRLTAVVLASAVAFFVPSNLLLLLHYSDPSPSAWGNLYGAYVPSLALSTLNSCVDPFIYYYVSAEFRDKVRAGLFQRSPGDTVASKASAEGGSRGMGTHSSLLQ

SMILES	EC50 [nM]
COc1cc(OCc2cccc(NC(=O)c3cn4nc(C(C)(F)F)sc4n3)c2)c2cc(-c3cn4nc(OC)sc4n3)oc2c1 [Example 68]	8.9
COc1cc(OCc2cccc(N(C)S(=O)(=O)c3ccccc3)c2)c2cc(-c3cn4nc(OC)sc4n3)oc2c1 [Example 91]	2
COc1cc(OCc2cccc(N)c2)c2cc(-c3cn4nc(OC)sc4n3)oc2c1 [Example 4, 3-(((6-Methoxy-2-(2-methoxyimidazo[2,1-b][1,3,4]thiadiazol-6-yl)benzofuran-4-yl)oxy)methyl)aniline]	17
COc1cc(OCc2cccc3c2CCN3C(=O)c2ccnnc2)c2cc(-c3cn4nc(OC)sc4n3)oc2c1 [Example 128]	> 3300
COc1cc(OCc2cccc(NC(=O)c3ccc(OC)c(C(F)(F)F)c3)c2)c2cc(-c3cn4nc(OC)sc4n3)oc2c1 [Example 157]	2.8
COc1cc(OCc2cccc(NC(=O)c3cccc(C#N)c3)c2)c2cc(-c3cn4nc(OC)sc4n3)oc2c1 [Example 16]	1.4
COc1cc(OCc2cccc(NC(=O)c3ccnc(F)c3)c2)c2cc(-c3cn4nc(OC)sc4n3)oc2c1 [Example 48]	2.7
COc1cc(OCc2cccc(NC(=O)c3c(F)cccc3F)c2)c2cc(-c3cn4nc(OC)sc4n3)oc2c1 [Example 143]	5.9
COc1cc(OCc2cccc(NC(=O)c3c(C)noc3C)c2)c2cc(-c3cn4nc(OC)sc4n3)oc2c1 [Example 45]	2.8
COc1cc(OCc2cccc(N(C)C(C)=O)c2)c2cc(-c3cn4nc(OC)sc4n3)oc2c1 [Example 94]	3.8
COc1cc(OCc2ccc3c(c2)N(C(=O)c2csc(C(F)(F)F)n2)CC3)c2cc(-c3cn4nc(OC)sc4n3)oc2c1 [Example 110]	0.52
COc1cc(OCc2cccc(NC(=O)c3ccc(C)c(F)c3)c2)c2cc(-c3cn4nc(OC)sc4n3)oc2c1 [Example 163]	2.1
COc1cc(OCc2ccc3c(c2)N(C(=O)c2ccccc2OC)CC3)c2cc(-c3cn4nc(OC)sc4n3)oc2c1 [Example 103]	4.5
COc1cc(OCc2cccc(NC(=O)c3ccc(Cl)cc3)c2)c2cc(-c3cn4nc(OC)sc4n3)oc2c1 [Example 5, 4-Chloro-N-(3-(((6-methoxy-2-(2-methoxyimidazo[2,1-b][1,3,4]thiadiazol-6-yl)benzofuran-4-yl)oxy)methyl)phenyl)benzamide]	1.3
COc1cc(OCc2cccc(NC(=O)CC3CCCCC3)c2)c2cc(-c3cn4nc(OC)sc4n3)oc2c1 [Example 146]	7.5
COc1ccc(C(=O)Nc2cccc(COc3cc(OC)cc4oc(-c5cn6nc(OC)sc6n5)cc34)c2)c(OC)c1 [Example 42]	2.3
COc1cc(OCc2cccc(NC(=O)c3cccc(Cl)c3)c2)c2cc(-c3cn4nc(OC)sc4n3)oc2c1 [Example 11]	1.7
COc1cc(OCc2cccc3c2CCN3C(=O)c2ccc(F)cc2)c2cc(-c3cn4nc(OC)sc4n3)oc2c1 [Example 116]	140
COc1cc(OCc2cccc(N(C)C(=O)c3ccccc3OC)c2)c2cc(-c3cn4nc(OC)sc4n3)oc2c1 [Example 86]	1.8
COc1cc(OCc2cccc(NC(=O)c3cc(F)cc(C(F)(F)F)c3)c2)c2cc(-c3cn4nc(OC)sc4n3)oc2c1 [Example 142]	1.3
COc1cc(OCc2cccc(NC(=O)OC(C)(C)C)c2)c2cc(-c3cn4nc(OC)sc4n3)oc2c1 [Example 3, tert-Butyl (3-(((6-methoxy-2-(2-methoxyimidazo[2,1-b][1,3,4]thiadiazol-6-yl)benzofuran-4-yl)oxy)methyl)phenyl)carbamate]	2.6
COc1cc(OCc2cccc(NC(=O)c3ccno3)c2)c2cc(-c3cn4nc(OC)sc4n3)oc2c1 [Example 155]	2.3
COc1cc(OCc2cccc(NC(=O)C3CCCC3)c2)c2cc(-c3cn4nc(OC)sc4n3)oc2c1 [Example 145]	6.8
COc1cc(OCc2cccc(NC(=O)c3ccc(Oc4ccccc4)nc3)c2)c2cc(-c3cn4nc(OC)sc4n3)oc2c1 [Example 51]	2.3

SMILES	EC50 [nM]
COc1cc(OCc2cccc(N(C)C(=O)c3ccc(F)cc3)c2)c2cc(-c3cn4nc(OC)sc4n3)oc2c1 [Example 87]	5.7
COc1cc(OCc2cccc(NC(=O)COCc3ccccc3)c2)c2cc(-c3cn4nc(OC)sc4n3)oc2c1 [Example 17]	0.55
COc1cc(OCc2cccc3c2CCN3C(=O)c2ccc(C)cc2)c2cc(-c3cn4nc(OC)sc4n3)oc2c1 [Example 123]	5
COc1cc(OCc2cccc(NC(=O)c3cc(Cl)cc(Cl)c3)c2)c2cc(-c3cn4nc(OC)sc4n3)oc2c1 [Example 19]	3.3
COc1cc(OCc2cccc(NC(=O)c3cccnc3F)c2)c2cc(-c3cn4nc(OC)sc4n3)oc2c1 [Example 61]	1.5
COc1cc(OCc2cccc3c2CCN3C(C)=O)c2cc(-c3cn4nc(OC)sc4n3)oc2c1 [Example 117]	> 3300
COc1cc(OCc2cccc(NC(=O)c3ccccc3C(F)(F)F)c2)c2cc(-c3cn4nc(OC)sc4n3)oc2c1 [Example 13]	1.9
CNc1cccc(COc2cc(OC)cc3oc(-c4cn5nc(OC)sc5n4)cc23)c1 [Example 82, 3-(((6-Methoxy-2-(2-methoxyimidazo[2,1-b][1,3,4]thiadiazol-6-yl)benzofuran-4-yl)oxy)methyl)-N-methylaniline]	5.2
COc1cc(OCc2cccc(NC(=O)c3c(C)noc3-c3ccccc3)c2)c2cc(-c3cn4nc(OC)sc4n3)oc2c1 [Example 59]	3.5
COc1cc(OCc2cccc(NC(=O)Cc3ccccc3)c2)c2cc(-c3cn4nc(OC)sc4n3)oc2c1 [Example 135]	5
COC(=O)c1ccc(C(=O)Nc2cccc(COc3cc(OC)cc4oc(-c5cn6nc(OC)sc6n5)cc34)c2)cc1 [Example 34]	1.2
COc1cc(OCc2cccc(NC(=O)c3cc(C)cc(C(F)(F)F)c3)c2)c2cc(-c3cn4nc(OC)sc4n3)oc2c1 [Example 71]	1.9
COc1cc(OCc2cccc(NC(=O)c3csc(-c4ccccc4)n3)c2)c2cc(-c3cn4nc(OC)sc4n3)oc2c1 [Example 72]	2.2
COc1cc(OCc2ccc3c(c2)N(C(=O)c2ccccc2F)CC3)c2cc(-c3cn4nc(OC)sc4n3)oc2c1 [Example 104]	2.2
COc1cc(OCc2cccc(N(C)C(=O)OC(C)(C)C)c2)c2cc(-c3cn4nc(OC)sc4n3)oc2c1 [Example 81, tert-Butyl (3-(((6-methoxy-2-(2-methoxyimidazo[2,1-b][1,3,4]thiadiazol-6-yl)benzofuran-4-yl)oxy)methyl)phenyl)(methyl)carbamate]	4.8
COc1cc(OCc2cccc(NC(=O)c3cccc(C)c3)c2)c2cc(-c3cn4nc(OC)sc4n3)oc2c1 [Example 20]	1.4
COc1cc(OCc2cccc(NC(=O)c3ccc(OC(F)F)cc3)c2)c2cc(-c3cn4nc(OC)sc4n3)oc2c1 [Example 164]	2
COc1cc(OCc2cccc(NC(=O)c3ccccc3C)c2)c2cc(-c3cn4nc(OC)sc4n3)oc2c1 [Example 27]	0.87
COc1cc(OCc2cccc(NC(=O)c3ccc(Cl)nc3)c2)c2cc(-c3cn4nc(OC)sc4n3)oc2c1 [Example 53]	3.5
COc1cc(OCc2cccc(N(C)C(=O)c3ccccc3)c2)c2cc(-c3cn4nc(OC)sc4n3)oc2c1 [Example 83, N-(3-(((6-methoxy-2-(2-methoxyimidazo[2,1-b][1,3,4]thiadiazol-6-yl)benzofuran-4-yl)oxy)methyl)phenyl)-N-methylbenzamide]	4.1
COc1cc(OCc2cccc(NC(=O)c3cc(Cl)nc(Cl)c3)c2)c2cc(-c3cn4nc(OC)sc4n3)oc2c1 [Example 55]	1.1
COc1cc(OCc2cccc(NC(=O)c3ccc(Br)cn3)c2)c2cc(-c3cn4nc(OC)sc4n3)oc2c1 [Example 65]	1.1
COc1cc(OCc2cccc(NC(=O)c3cccc(OC(F)(F)F)c3)c2)c2cc(-c3cn4nc(OC)sc4n3)oc2c1 [Example 6, N-(3-(((6-methoxy-2-(2-methoxyimidazo[2,1-b][1,3,4]thiadiazol-6-yl)benzofuran-4-yl)oxy)methyl)phenyl)-3-(trifluoromethoxy)benzamide]	1.4
COc1cc(OCc2ccc3c(c2)N(C(=O)c2csc(-c4ccccc4)n2)CC3)c2cc(-c3cn4nc(OC)sc4n3)oc2c1 [Example 112]	0.55

Reference: patent US10214544B2, “Imidazopyridazine and imidazothiadiazole compounds” (Universite de Montreal, priority 2015, dated 2019)
